Laboratory results as given in patent US5604095A, “Unsymmetrically linked bisnaphthalimides as antitumor agents” (Cancer Therapy & Research Center, priority 1994, dated 1997).
Where two headings read alike, the source gives them in different places.

Assays:
[1] = cited from earlier work
[2] = test system: topoisomerase II; details: Hsiang et al., 1989; cited from earlier work
[3] = test system: HT29 human colon carcinoma cell line; experiment: Growth inhibition (MTT), HT29 human colon carcinoma cell line; type: cell-based; details: 6 days incubation
Text: (§1) P388 murine leukemic cell line was obtained from the DCT Tumor Repository (National Cancer Institute, Frederick Cancer Research and Development, Frederick Md. 21702). HT29 Human Colon Carcinoma cell line was obtained from the American Type Culture Collection (12301 Parklawn Drive, Rockville, Md. 20852). B16 Melanoma cell line was obtained from DuPont Merck Pharmaceutical Company (Glenolden, Pa. 19036). MCF-7 Human Breast Carcinoma cell line was a gift from Dr. K. Osborne (Department of Medicine, The University of Texas Health Science Center at San Antonio, San Antonio, Tex. 78284). All cell lines were incubated at 37° C. in a humidified atmosphere of 5% CO2 -95% air. Murine B16 melanoma cell line was grown in RPMI 1640 medium supplemented with 10% heat-inactivated fetal bovine serum, 2 mM L-glutamine, 50 units/ml penicillin, 50 μg/ml streptomycin, 25 μg/ml gentamycin, 0.75% sodium bicarbonate, 10 mM HEPES buffer (pH 7.4), and 0.06 mg/ml AntiPPLO. Murine P388 leukemic and the human HT-29 colon adenocarcinoma cell lines were maintained in RPMI 1640 medium supplemented with 10% heat-inactivated fetal bovine serum. MCF-7M human breast adenocarcinoma was maintained in IMEM medium supplemented with 5% non heat-inactivated fetal bovine serum and 1 nM insulin.
(§2) Exponentially growing cells (1-2×10^3 cells, unless specified otherwise) in 0.1 ml medium were seeded on day 0 in a 96-well microtiter plate. On day 1, 0.1 ml aliquots of medium containing graded concentrations of test compounds were added in duplicate to the cell plates. After incubation at 37° C. in a humidified incubator for 3 days (P388, B16) or 6 days (HT-29, MCF-7M), the plates were centrifuged briefly and 100 μl of the growth medium was removed. Cell cultures were incubated with 50 μl of 3-(4,5-dimethylthiazol-2-yl)-2,5-diphenyl-tetrazolium bromide [MTT, 1 mg/ml in Dulbecco's phosphate buffered saline (PBS)] for 4 hr at 37° C. The resulting purple formazan precipitate was solubilized with 200 μl of 0.04N HCl in isopropyl alcohol. Absorbance was monitored in a BioRad Model 3550 Microplate Reader at a test wavelength of 570 nm and a reference wavelength of 630 nm. The absorbance was transferred to a PC 486 computer. The IC50 values were determined by a computer program (EZ-ED50) that fit all of the data to the following four-parameterlogistic equation:
(§3) Y=((Am -Ao)/(1+(X/IC50)^n))+Ao
(§4) where Am is the absorbance of control cells, Ao is the absorbance of cells in the presence of highest agent concentration, Y is the observed absorbance, X is the agent concentration, IC50 is the concentration of agent that inhibits the cell growth by 50% of control cells (based on the absorbance) and n is the slope of the curve.

[4] = target: poly-(dG.dC)-poly-(dG.dC); experiment: Ethidium bromide displacement assay, poly(dG.dC)-poly(dG.dC); type: binding; details: 50% reduction of ethidium bromide fluorescence, pH 7.0, read-out: FI50 (the source's name)
Protocol: (§5) Stock Solutions. A 10X Binding solution was prepared by combining 0.93 ml of an aqueous NaCl solution (5M), 2.0 ml of an aqueous Tris HCl (500 mM) solution, 0.1 ml of an EDTA solution (500 mM) and 46.97 ml of water. The resultant solution was 93 mM in NaCl, 20 mM in Tris HCl, and 1 mM in EDTA. Stock DNA solution were prepared as follows: Poly (dG.dC)-(dG.dC) (ε254=8.4/mM; 27-7910-02), poly (dA.dT)-(dA.dT) (ε262=6.6/mM; 27-7870-02), and lambda DNA (δ260-7.0/mM; 27-4111-01) were purchased from Pharmacia. Solutions were prepared by resuspending either poly (dG.dC)-(dG.dC) or poly (dA.dT)-(dA.dT)in 1 ml of 10X DNA Binding Solution. Lambda DNA is already in solution as purchased.
(§6) Determination of concentration of the stock DNA solutions. Poly (dG.dC) - (dG.dC), poly (dA.dt) - (dA.dt) and lambda DNA concentrations were determined as follows: 980 μl of 10X DNA Binding Solution was pipetted into a 1 ml cuvette. […] The sample was then scanned between 210 nm to 500 nm and the absorbance recorded at 254 nm for poly (dG.dC)-(dG.dC), at 262 nm for poly (dA.dT)-(dA.dT) and at 260 nm for lambda DNA. […] This procedure was followed for three different solutions with the absorbance taken as the average of the three. The concentration of poly (dG.dC)-(dG.dC) stock was calculated to be A254 /8.4×1000 (in μM). The concentration of poly (dA.dT) - (dA.dT) stock was calculated to be A262 /6.6×1000 (in μM). […]

[5] = test system: B16 melanoma cell line; experiment: Growth inhibition (MTT), B16 melanoma cell line; type: cell-based, murine; details: for IC50: B16, 3 days incubation, MTT
Text: as §1, §2, §3, §4

[6] = target: Lambda DNA; experiment: Ethidium bromide displacement assay, Lambda DNA; type: binding; details: 50% reduction of ethidium bromide fluorescence, pH 7.0, read-out: FI50 (the source's name)
Protocol: as §5, §6

[7] = test system: MCF-7 human breast carcinoma cell line; experiment: Growth inhibition (MTT), MCF-7 human breast carcinoma cell line; type: cell-based; details: 6 days incubation
Text: as §1, §2, §3, §4

[8] = target: poly-(dA.dT)-poly-(dA.dT); experiment: Ethidium bromide displacement assay, poly(dA.dT)-poly(dA.dT); type: binding; details: 50% reduction of ethidium bromide fluorescence, pH 7.0, read-out: FI50 (the source's name)
Protocol: as §5, §6

[9] = test system: DNA; experiment: Ethidium bromide displacement assay, DNA binding and AT/GC selectivity; details: for Ratio (AT/GC): FI50 poly(dA.dT) / FI50 poly(dG.dC)
Protocol: as §5
Determination of concentration of the stock DNA solutions. Poly (dG.dC) - (dG.dC), poly (dA.dt) - (dA.dt) and lambda DNA concentrations were determined as follows: 980 μl of 10X DNA Binding Solution was pipetted into a 1 ml cuvette. A blank was run on the UV spectrophotometer. 20 μl of the DNA stock of unknown concentration was then added into the cuvette. The sample was then scanned between 210 nm to 500 nm and the absorbance recorded at 254 nm for poly (dG.dC)-(dG.dC), at 262 nm for poly (dA.dT)-(dA.dT) and at 260 nm for lambda DNA. The solution was transferred to a clean tube. This procedure was followed for three different solutions with the absorbance taken as the average of the three. The concentration of poly (dG.dC)-(dG.dC) stock was calculated to be A254 /8.4×1000 (in μM). The concentration of poly (dA.dT) - (dA.dT) stock was calculated to be A262 /6.6×1000 (in μM). The concentration of lambda DNA stock was calculated to be A260 /7.0×1000 (in μM).
Ethidium Bromide Displacement Assay. The binding of the bis-naphthalimides to DNA and to synthetic polynucleotide duplexes was determined by an ethidium bromide displacement assay that measures the reduction of fluorescence when ethidium bromide is displaced from DNA (Baguley, 1981). The fluorescence intensity of a 3 ml solution containing 9.3 mM NaCl, 2 mM Tris-HCI (pH 7.0), 100 μM EDTA, 1 μM DNA (in nucleotides) and 1.26 μM ethidium bromide in a quartz cuvette was measured at the excitation (546 nm) and emission (600 nm) wavelengths on a Shimadzu RF5000U spectrofluorometer. Graded concentrations of agent were then added and the fluorescence intensity was measured. The concentration of compound required to reduce the fluorescence intensity by 50% of that of control (FI50) was determined. Therefore, the lower the FI50 the stronger the binding affinity a particular compound has for DNA. […]

[10] = test system: B16 melanoma; experiment: In vivo tumor inhibiting activity vs. B16 melanoma in B6D2F1 mice
Protocol: B16 Melanoma: B6D2F1 mice received i.p. inocula of B16 murine melanoma brei prepared from B16 tumors growing subcutaneously in mice (day 0). On day 1, rumored mice were treated with drugs or vehicle control; the route of drug administration and schedule were selected as appropriate for the study in question. If dosing information for agents was not available, the maximum tolerated dose (MTD) was determined in initial dose finding experiments in non-rumored mice. In a typical experiment, drugs were given at their MTD and 1/2 MTD doses i.p. on a daily×5 schedule.
The mean survival times of all groups were calculated, and results were expressed as mean survival of treated mice/mean survival of control mice (T/C)×100%. A T/C value of 150 means that the mice in the treated group lived 50% longer than those of the control group; this is sometimes referred to as the increase in life space, or ILS value.
Mice that survived for 60 days were considered long term survivors, or cures, in the B16 model. The universally accepted cut-off for activity in this model, which has been used for years by the National Cancer Institute, is T/C=125. Conventional use of B16 over the years has set the following levels of activity: T/C<125, no activity; T/C=125-150, weak activity; T/C=150-200, modest activity; T/C=200-300, high activity; T/C>300, with long term survivors, excellent, curative activity (Goldin et al., 1981).
Statistics were performed on the data using primarily the log rank p-value test.

[11] = test system: P388 murine leukemic cell line; experiment: Growth inhibition (MTT), P388 murine leukemic cell line; type: cell-based; details: Mus musculus, 72 h, 3 days incubation
Text: P388 murine leukemic cell line was obtained from the DCT Tumor Repository (National Cancer Institute, Frederick Cancer Research and Development, Frederick Md. 21702). HT29 Human Colon Carcinoma cell line was obtained from the American Type Culture Collection (12301 Parklawn Drive, Rockville, Md. 20852). B16 Melanoma cell line was obtained from DuPont Merck Pharmaceutical Company (Glenolden, Pa. 19036). MCF-7 Human Breast Carcinoma cell line was a gift from Dr. K. Osborne (Department of Medicine, The University of Texas Health Science Center at San Antonio, San Antonio, Tex. 78284). All cell lines were incubated at 37° C. in a humidified atmosphere of 5% CO2 -95% air. […]
Exponentially growing cells (1-2×10^3 cells, unless specified otherwise) in 0.1 ml medium were seeded on day 0 in a 96-well microtiter plate. […] Absorbance was monitored in a BioRad Model 3550 Microplate Reader at a test wavelength of 570 nm and a reference wavelength of 630 nm. The absorbance was transferred to a PC 486 computer. The IC50 values were determined by a computer program (EZ-ED50) that fit all of the data to the following four-parameterlogistic equation: […]

[12] = test system: human cancers; details: literature; cited from earlier work

Structure (SMILES): COc1cccc2c1C(=O)c1c(O)c3c(c(O)c1C2=O)C[C@@](O)(C(=O)CO)C[C@@H]3O[C@H]1C[C@H](N)[C@H](O)[C@H](C)O1 [doxorubicin]
- cardiomyopathy ([1]; Calabresi and Chabner, 1990): limited by an unusual cardiomyopathy

Structure (SMILES): CN(C)CCN1C(=O)c2cccc3cc(N)cc(c23)C1=O [amonafide]
- intercalator-stabilized-topoisomerase II-DNA cleavable complex formation [2]: result in intercalator-stabilized-topoisomerase II-DNA cleavable complex formation
- topoisomerase II inhibition [2]: inhibit topoisomerase II

Structure (SMILES): O=C1c2cccc3cc([N+](=O)[O-])cc(c23)C(=O)N1CCNCCOCCN1C(=O)c2cccc3cc([N+](=O)[O-])cc(c23)C1=O [Compound 5, 5-[2-(3-Nitronaphthalene-1,8-dicarboximido)ethylamino]-1-(3-nitronaphthalene-1,8-dicarboximido)-3-oxapentane]
- IC50 ([3]; Homo sapiens, HT-29, 144 h): 3 nM
- IC50 [4]: 71 nM
- IC50 ([5]; Mus musculus, B16, 72 h): 20 nM
- IC50 [6]: 241 nM
- IC50 [7]: 1 nM
- IC50 [8]: 5220 nM
- Ratio (AT/GC) [9]: 73.5

Structure (SMILES): O=C1c2cccc3cc([N+](=O)[O-])cc(c23)C(=O)N1CCNCCOCCN1C(=O)c2cccc3cc([N+](=O)[O-])cc(c23)C1=O [Compound 6]
- Wt. Ch. (Day 7) ([10]; 15 mg/kg, q.d. × 5, i.p.): -7.4%
- activity against B16 melanoma compared with DMP840 ([10]; comparator DMP840): more effective against B16 melanoma
- activity compared with DMP840, compounds 22 and 23, and cytoxan ([10]; comparators DMP840, 22, 23, cytoxan): more active
- IC50 [3]: 3 nM
- IC50 [11]: 35 nM
- IC50 [5]: 11 nM
- IC50 [7]: 2.6 nM
- Displacement of ethidium bromide / decrease in fluorescence intensity ([9]; FIG. 1, graded concentrations): dose-dependent decrease in fluorescence intensity

Structure (SMILES): COc1cc(NS(C)(=O)=O)ccc1Nc1c2ccccc2nc2ccccc12 [amsacrine]
- clinical anti-tumor activity [12]: exhibit clinical anti-tumor activity

Structure (SMILES): O=C1c2c(O)cccc2-c2nn(CCNCCO)c3ccc(NCCNCCO)c1c23 [DuP 941]
- clinical anti-tumor activity [12]: exhibit clinical anti-tumor activity

Structure (SMILES): COc1cccc2c1C(=O)c1c(O)c3c(c(O)c1C2=O)C[C@@](O)(C(C)=O)C[C@@H]3O[C@H]1C[C@H](N)[C@H](O)[C@H](C)O1 [daunorubicin]
- cardiomyopathy ([1]; human, in vivo): limited by an unusual cardiomyopathy

Structure (SMILES): O=C1c2cccc3cc([N+](=O)[O-])cc(c23)C(=O)N1CCOCCOCCN1C(=O)c2cccc3cc([N+](=O)[O-])cc(c23)C1=O [Compound 19, 5-[2-(3-Nitronaphthalene-1,8-dicarboximido)ethoxy]-1-(3-nitronaphthalene-1,8-dicarboximido)-3-oxapentane]
- in vitro anticancer activity against B16 melanoma (in words) ([5]; B16 melanoma in vitro): potent anticancer activity against this melanoma type
- DNA binding (in words) [9]: did not bind to DNA
- Ratio (AT/GC) [9]: 1.7

Structure (SMILES): O=C1c2cccc3cc([N+](=O)[O-])cc(c23)C(=O)N1CCNCCNCCN1C(=O)c2cccc3cc([N+](=O)[O-])cc(c23)C1=O [Compound 23, 2,2'[1,2-ethanediylbis[imino(2,1-ethanediyl)]]-bis[5-nitro-1H-benz[de]isoquinoline-1,3-(2H)-dione] monomethanesulfonate]
- Wt. Ch. (Day 7) ([10]; 2.5 mg/kg, q.d. × 5, i.p.): 0.95%
- IC50 [3]: 0.52 nM
- IC50 [11]: 6 nM
- IC50 [5]: 12.9 nM
- IC50 [7]: 1.39 nM

Structure (SMILES): O=P1(N(CCCl)CCCl)NCCCO1 (centres unmarked) [Cytoxan]
- Wt. Ch. (Day 7) ([10]; 300 mg/kg, q.d. × 1, i.p.): -6.6%

Structure (SMILES): O=C1c2c(O)ccc(O)c2C(=O)c2c(NCCNCCO)ccc(NCCNCCO)c21 [mitoxantrone]
- clinical anti-tumor activity [12]: exhibit clinical anti-tumor activity

Structure (SMILES): O=C1c2cccc3cc([N+](=O)[O-])cc(c23)C(=O)N1CCNCCNCCN1C(=O)c2cccc3cc([N+](=O)[O-])cc(c23)C1=O [Compound 22, 2,2'[1,2-ethanediylbis[imino(2,1-ethanediyl)]]-bis[5-nitro-1H-benz[de]isoquinoline-1,3-(2H)-dione] dimethanesulfonate]
- Wt. Ch. (Day 7) ([10]; 2.5 mg/kg, q.d. × 5, i.p.): -0.17%
- IC50 ([3]; Homo sapiens, HT-29, 144 h): 0.48 nM
- IC50 [4]: 48 nM
- IC50 [5]: 4.3 nM
- IC50 [6]: 53 nM
- IC50 [7]: 0.53 nM
- IC50 [8]: 787 nM
